From patent US11434205B2, “Substituted imidazole carboxylate derivatives and the use thereof” (priority 2018, dated 2022)
Read-outs that look alike come from different tables or passages of the source.

Tests used:
[1] = test system: rats; experiment: Pharmacological characteristics at equivalent doses (2×ED50) in rats; conditions: 2×ED50, tail vein; for Adverse reactions: Red urine (incidence): DMSO solution (DMSO alone 10/10); for Onset time: time of LORR; for Adverse reactions: Tremor (incidence): animals affected/animals
How it was run: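 Adult male Sprague-Dawley rats (250-300 g, n=8) received each drug at twice its ED50 via tail vein (0.6 mL at 0.1 mL/s). Onset of anesthesia taken as time to LORR.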

[2] = test system: rats; assay type: in vivo, rat; conditions: rats of the MAP/HR figures, 2×ED50, tail vein; same value in min
How it was run: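 Rats implanted with telemetry (left ventricular and abdominal aortic catheters, ECG leads) at least one week before recording; compounds given via lateral tail-vein catheter. MAP and HR sampled every 15 s for 30 min before and after dosing to judge hemodynamic stability.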

[3] = test system: secretion of cortisol, H295R cell line; experiment: cells; assay type: cell-based; conditions: for EC50: Homo sapiens, NCI-H295R, read-out: EC50 (Cortisol)
Protocol: (§1) The Effects of the Compounds on Adrenocortical Function In Vitro Test
(§2) Then secretion of the cortisol and corticosterone in the supernatant, was measured using HPLC-MS/MS method to determine whether the compounds of the present invention had adrenotoxic potential.

[4] = test system: secretion of corticosterone, H295R cell line; experiment: cells; assay type: cell-based; conditions: for EC50: Homo sapiens, NCI-H295R, read-out: EC50 (Corticosterone)
Protocol: as §1, §2

[5] = test system: rats
Protocol: Adult male Sprague-Dawley rats (250-300 g) were selected for the experiment. […] The anesthesia effects of the compounds were assessed in rats using a LORR assay and a period >30 s was considered as an indicator of general anesthesia. Then the up and down method was used to determine 50% effective dose (ED50). The drugs were administered through the tail vein of rats in a volume of 0.6 mL and at a rate of 0.1 mL/s.

[6] = test system: rats; experiment: Loss of righting reflexes (LORR) assay in rats, ED50 by up and down method; assay type: in vivo, rat; conditions: Rattus norvegicus, tail vein, class symbols
How it was run: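 Adult male Sprague-Dawley rats (250-300 g) dosed i.v. via tail vein at 0.1 mL/s. Anesthesia scored as loss of righting reflex lasting >30 s; ED50 derived by up-and-down method.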

[7] = test system: rats; conditions: for Adverse reactions: Tremor (incidence): continuous infusion 2×MIR
Protocol: Pharmacological Effects of the Compounds on Continuous Infusion in Rats
Adult male Sprague-Dawley rats with body weight ranging from 250 to 300 gm were selected for continuous infusion test. […] Time to recovery of righting reflex from stopping infusion, and time to fully awake from stopping infusion were recorded.

[8] = test system: rats; assay type: in vivo, rat; conditions: rats of the MAP/HR figures, 2×ED50, tail vein
[9] = H295R cell line, 0.1-10000 nM, HPLC-MS/MS, Table D3
[10] = continuous tail vein infusion at 2×MIR, LORR maintained 1 hour, Table D4
[11] = continuous tail vein infusion at 2×MIR, LORR maintained 1 hour, Table C4
[12] = emulsion, continuous infusion at 2×MIR
[13] = H295R cell line, 0.1-10000 nM, HPLC-MS/MS, Table E3
[14] = continuous tail vein infusion at 2×MIR, LORR maintained 1 hour, Table E4

SMILES | Righting reflex duration [1] [min] | Adverse reactions: Red urine (incidence) [1] | Onset time [1] [min] | recovery time of the test animals' righting reflex [2] [min] | Cortisol as an indicator to determine the presence of inhibition [3, 9] | EC50 [3] [µM] | Corticosterone as an indicator to determine the presence of inhibition [4, 9] | EC50 [4] [µM] | Approximate therapeutic index [5] | Minimal lethal dose [5] [mg/kg] | ED50 [6] [mg/kg] | Onset time [7, 10] [min] | Recovery time after stopping infusion [7, 10] [min] | Types and incidence of adverse reactions [7, 10] | recovery time of the test animals' righting reflex [8] [s] | further results
C=C=CC1(OC(=O)c2cncn2[C@H](C)c2ccccc2)CCCCC1 [Compound D43] | 1.45 ± 0.78 | Red urine (8/8) | 0.22 ± 0.07 | 1.95 | 0 | > 10 | 0 | > 10 | >13 | >1 | 0.01 to 0.1 | 2 to 3 | 11 to 14 | Tremor (4/6) | 117 | Adverse reactions: Hindlimb rigidity (incidence) [1]: Hindlimb rigidity (2/8),
CCC(CC)OC(=O)c1cncn1[C@H](C)c1ccccc1 [Compound C24] | 2.21 ± 1.28 | urine (8/8) | 0.49 ± 0.15 | 2.25 |  | > 1 |  | > 1 | >11 | >1 | 0.01 to 0.1 |  |  |  | 135 | Adverse reactions: Convulsions (incidence) [1]: Convulsions (1/8), Red; Cortisol as an indicator to determine the presence of inhibition ([3]; H295R, Table C3): 0; Corticosterone as an indicator to determine the presence of inhibition ([4]; H295R, Table C3): 0; Onset time [7, 11]: 3 to 4 min; Recovery time after stopping infusion [7, 11]: 9 to 13 min; Types and incidence of adverse reactions [7, 11]: Tremor (1/6)
C#CC(C)OC(=O)c1cncn1[C@H](C)c1ccccc1 (some centres unmarked) [Compound D14] | 2.09 ± 1.08 | Red urine (8/8) | 0.24 ± 0.09 | 3.5 | 0 | > 10 | 0 | > 10 | >13 | >3 | 0.1 to 0.5 | 2 to 3 | 11 to 14 | Tremor (5/6) | 210 | 
C=C=CC1(OC(=O)c2cncn2[C@H](C)c2ccccc2)CCC1 [Compound D13] | 5.09 ± 1.89 | Red urine (8/8) | 0.25 ± 0.06 | 1.82 | 0 | > 10 | 0 | > 10 | >12 | >6 | 0.01 to 0.1 | 2 to 3 | 13 to 22 | Tremor (4/6) | 109 | 
CCC#CC(C)OC(=O)c1cncn1[C@H](C)c1ccccc1 (some centres unmarked) [Compound D36] | 2.63 ± 1.78 | Red urine (8/8) | 0.31 ± 0.14 | 2.38 | 0 | > 1 | 0 | > 1 | >15 | >4 | 0.1 to 0.5 | 3 to 4 | 12 to 17 |  | 143 | Adverse reactions: Hindlimb rigidity (incidence) [1]: Hindlimb rigidity (2/8),; Adverse reactions: Tongue stretching (incidence) [1]: Tongue stretching (4/8),
CSCCOC(=O)c1cncn1[C@H](C)c1ccccc1 [Compound C27] | 3.06 ± 1.50 | Red urine (8/8) | 0.12 ± 0.07 | 3.1 |  | > 1 |  | > 1 | >11 | >9 | 0.5 to 1 |  |  |  | 186 | Cortisol as an indicator to determine the presence of inhibition ([3]; H295R, Table C3): 0; Corticosterone as an indicator to determine the presence of inhibition ([4]; H295R, Table C3): 0; Onset time [7, 11]: 3 to 4 min; Recovery time after stopping infusion [7, 11]: 10 to 11 min; Types and incidence of adverse reactions [7, 11]: Tremor (2/6)
C[C@H](c1ccccc1)n1cncc1C(=O)OCC1CC(F)(F)C1 [Compound A12] | 4.04 ± 1.65 | (8/8) | 0.16 ± 0.06 | 4.23 |  | > 1 |  |  | >16 | >10 | 0.5 to 1 |  |  |  | 254 | Adverse reactions: Restlessness (incidence) [1]: Restlessness (2/8), Red urine; Cortisol as an indicator to determine the presence of inhibition ([3]; H295R, Table A3): 0; Corticosterone as an indicator to determine the presence of inhibition ([4]; H295R, Table A3): 0; Recovery time after stopping infusion ([7]; after 1 hour infusion at 2×MIR): 13 to 16 min; Adverse reactions: Tremor (incidence) [7]: Tremor (4/6); Onset time [7, 12]: 3 to 4 min
C=CC#CC(C)(C)OC(=O)c1cncn1[C@H](C)c1ccccc1 [Compound D37] | 3.09 ± 2.03 | Red urine (8/8) | 0.24 ± 0.11 | 2.75 | 0 | > 1 | 0 | > 1 | >13 | >10 | 0.5 to 1 | 2 to 3 | 12 to 18 | Tremor (4/6) | 165 | 
CCCC1(OC(=O)c2cncn2[C@H](C)c2ccccc2)COC1 [Compound B19] | 1.99 ± 1.39 | 8/8 | 0.31 ± 0.13 | 2.08 |  | > 10 |  | > 10 | >11 | >20 | 0.5 to 1 |  |  |  | 125 | Adverse reactions: Tremor (incidence) [1]: 2/8; Cortisol as an indicator to determine the presence of inhibition ([3]; H295R, Table B3): 0; Corticosterone as an indicator to determine the presence of inhibition ([4]; H295R, Table B3): 0; Recovery time after stopping infusion ([7]; after 1 hour infusion at 2×MIR): 12 to 17 min; Adverse reactions: Tremor (incidence) [7]: Tremor (5/6); Onset time [7, 12]: 3 to 4 min
CC(OC(=O)c1cncn1[C@H](C)c1ccccc1)C1CC1 (some centres unmarked) [Compound A16] | 2.63 ± 1.20 | 8/8 | 0.16 ± 0.07 | 2.78 |  | > 1 |  | > 1 | >33 | >10 | 0.1 to 0.5 |  |  |  | 167 | Adverse reactions: Tremor (incidence) [1]: 2/8; Cortisol as an indicator to determine the presence of inhibition ([3]; H295R, Table A3): 0; Corticosterone as an indicator to determine the presence of inhibition ([4]; H295R, Table A3): 0; Recovery time after stopping infusion ([7]; after 1 hour infusion at 2×MIR): 12 to 14 min; Adverse reactions: Tremor (incidence) [7]: Tremor (3/6); Onset time [7, 12]: 2 to 3 min
COCC1(COC(=O)c2c(F)ncn2[C@H](C)c2ccccc2)CCC1 [Compound E2] | 2.20 ± 1.11 | (8/8) | 0.23 ± 0.07 | 2.15 |  | > 10 |  | > 10 | >25 | >5 | 0.1 to 0.5 |  |  |  | 129 | Cortisol as an indicator to determine the presence of inhibition [3, 13]: 0; Corticosterone as an indicator to determine the presence of inhibition [4, 13]: 0; Onset time [7, 14]: 3 to 4 min; Recovery time after stopping infusion [7, 14]: 11 to 13 min; Types and incidence of adverse reactions [7, 14]: Tremor (2/6)
